Test results taken from article PMC7549094 (Journal of Medicinal Chemistry, 2020).

What was measured:
Assay in all cases: receptor profile (Table S4)
hr GR ag = target: T1, hr GR ag (Homo sapiens, UniProt P04150); type: biochemical
T1 sequence (P04150 1-777): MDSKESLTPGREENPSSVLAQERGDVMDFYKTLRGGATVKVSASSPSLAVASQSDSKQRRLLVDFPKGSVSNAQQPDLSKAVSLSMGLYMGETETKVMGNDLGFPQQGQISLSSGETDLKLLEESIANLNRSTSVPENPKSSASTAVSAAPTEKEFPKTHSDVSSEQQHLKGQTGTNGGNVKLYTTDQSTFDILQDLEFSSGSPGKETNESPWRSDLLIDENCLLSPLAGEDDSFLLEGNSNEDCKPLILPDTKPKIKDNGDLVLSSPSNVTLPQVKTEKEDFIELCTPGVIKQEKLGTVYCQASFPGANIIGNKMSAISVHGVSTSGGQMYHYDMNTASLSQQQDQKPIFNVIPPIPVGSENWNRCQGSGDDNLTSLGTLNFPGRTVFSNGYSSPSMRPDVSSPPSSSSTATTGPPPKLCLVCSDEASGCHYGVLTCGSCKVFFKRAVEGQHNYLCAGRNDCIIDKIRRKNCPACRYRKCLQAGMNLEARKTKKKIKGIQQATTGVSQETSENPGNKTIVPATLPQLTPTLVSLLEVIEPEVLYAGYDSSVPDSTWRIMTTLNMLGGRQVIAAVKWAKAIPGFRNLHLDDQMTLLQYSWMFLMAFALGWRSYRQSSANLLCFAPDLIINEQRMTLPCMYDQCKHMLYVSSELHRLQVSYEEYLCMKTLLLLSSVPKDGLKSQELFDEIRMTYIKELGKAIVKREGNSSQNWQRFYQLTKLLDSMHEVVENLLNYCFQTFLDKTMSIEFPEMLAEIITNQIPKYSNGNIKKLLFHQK

hr Nav1.5 = hr Nav1.5 (Homo sapiens, UniProt Q14524); details: hr Nav1.5
Sequence of hr Nav1.5 (Q14524 whole entry): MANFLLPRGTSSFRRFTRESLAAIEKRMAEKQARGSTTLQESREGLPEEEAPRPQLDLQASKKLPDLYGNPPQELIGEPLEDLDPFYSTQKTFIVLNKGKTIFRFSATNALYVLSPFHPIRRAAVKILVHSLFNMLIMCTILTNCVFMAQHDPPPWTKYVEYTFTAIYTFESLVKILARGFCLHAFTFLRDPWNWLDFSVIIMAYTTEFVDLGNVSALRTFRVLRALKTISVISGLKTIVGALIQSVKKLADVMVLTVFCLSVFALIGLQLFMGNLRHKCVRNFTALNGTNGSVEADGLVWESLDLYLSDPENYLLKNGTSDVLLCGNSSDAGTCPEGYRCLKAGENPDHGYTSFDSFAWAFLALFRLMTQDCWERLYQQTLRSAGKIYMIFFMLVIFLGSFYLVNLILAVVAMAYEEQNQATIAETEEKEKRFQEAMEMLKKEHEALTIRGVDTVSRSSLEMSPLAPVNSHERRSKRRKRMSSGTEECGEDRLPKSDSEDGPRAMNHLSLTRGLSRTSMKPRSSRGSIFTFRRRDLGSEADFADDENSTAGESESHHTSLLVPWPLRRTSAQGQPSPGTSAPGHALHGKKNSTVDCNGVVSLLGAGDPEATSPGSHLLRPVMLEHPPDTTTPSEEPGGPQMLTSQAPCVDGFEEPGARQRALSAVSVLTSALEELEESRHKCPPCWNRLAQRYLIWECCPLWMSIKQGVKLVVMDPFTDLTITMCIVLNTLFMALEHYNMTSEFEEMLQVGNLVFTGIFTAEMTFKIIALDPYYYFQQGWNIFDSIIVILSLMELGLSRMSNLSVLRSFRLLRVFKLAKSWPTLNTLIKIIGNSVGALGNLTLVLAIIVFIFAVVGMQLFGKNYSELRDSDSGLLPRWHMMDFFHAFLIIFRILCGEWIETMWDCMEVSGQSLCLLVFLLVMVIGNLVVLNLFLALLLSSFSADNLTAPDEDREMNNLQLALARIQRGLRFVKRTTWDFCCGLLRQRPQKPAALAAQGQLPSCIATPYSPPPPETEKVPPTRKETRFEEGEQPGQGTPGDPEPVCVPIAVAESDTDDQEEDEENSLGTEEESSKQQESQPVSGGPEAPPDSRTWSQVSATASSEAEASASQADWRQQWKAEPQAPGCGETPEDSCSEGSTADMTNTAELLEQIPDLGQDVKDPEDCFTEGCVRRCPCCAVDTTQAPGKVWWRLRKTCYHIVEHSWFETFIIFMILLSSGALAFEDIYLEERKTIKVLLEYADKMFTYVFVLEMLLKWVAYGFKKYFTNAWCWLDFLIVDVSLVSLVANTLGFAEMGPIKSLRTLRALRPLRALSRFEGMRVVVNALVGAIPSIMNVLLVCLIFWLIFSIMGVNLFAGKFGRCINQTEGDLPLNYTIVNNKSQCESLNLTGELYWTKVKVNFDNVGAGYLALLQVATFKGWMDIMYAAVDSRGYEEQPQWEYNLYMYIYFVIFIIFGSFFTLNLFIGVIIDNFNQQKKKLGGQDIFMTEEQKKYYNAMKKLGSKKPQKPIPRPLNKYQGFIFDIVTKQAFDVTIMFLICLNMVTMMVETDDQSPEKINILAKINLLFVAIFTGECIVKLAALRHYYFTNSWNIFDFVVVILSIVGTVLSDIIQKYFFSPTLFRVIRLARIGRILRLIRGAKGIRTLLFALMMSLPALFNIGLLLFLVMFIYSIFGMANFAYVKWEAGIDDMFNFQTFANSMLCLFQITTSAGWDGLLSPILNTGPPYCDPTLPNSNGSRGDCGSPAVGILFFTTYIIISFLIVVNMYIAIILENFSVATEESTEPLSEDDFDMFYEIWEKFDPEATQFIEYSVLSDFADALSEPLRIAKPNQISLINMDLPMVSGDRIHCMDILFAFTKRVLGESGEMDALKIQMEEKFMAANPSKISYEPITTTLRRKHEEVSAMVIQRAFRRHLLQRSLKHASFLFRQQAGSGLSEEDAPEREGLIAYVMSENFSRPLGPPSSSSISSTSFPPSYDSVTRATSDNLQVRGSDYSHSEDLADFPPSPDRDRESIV

Nav1.5 = Nav1.5 (Homo sapiens, UniProt Q14524); details: human
Sequence of Nav1.5 (Q14524 whole entry): as above

ov COX-1 = target: T2, ov COX-1 (Ovis aries, UniProt P05979); type: biochemical, ovine
T2 sequence (P05979 25-600): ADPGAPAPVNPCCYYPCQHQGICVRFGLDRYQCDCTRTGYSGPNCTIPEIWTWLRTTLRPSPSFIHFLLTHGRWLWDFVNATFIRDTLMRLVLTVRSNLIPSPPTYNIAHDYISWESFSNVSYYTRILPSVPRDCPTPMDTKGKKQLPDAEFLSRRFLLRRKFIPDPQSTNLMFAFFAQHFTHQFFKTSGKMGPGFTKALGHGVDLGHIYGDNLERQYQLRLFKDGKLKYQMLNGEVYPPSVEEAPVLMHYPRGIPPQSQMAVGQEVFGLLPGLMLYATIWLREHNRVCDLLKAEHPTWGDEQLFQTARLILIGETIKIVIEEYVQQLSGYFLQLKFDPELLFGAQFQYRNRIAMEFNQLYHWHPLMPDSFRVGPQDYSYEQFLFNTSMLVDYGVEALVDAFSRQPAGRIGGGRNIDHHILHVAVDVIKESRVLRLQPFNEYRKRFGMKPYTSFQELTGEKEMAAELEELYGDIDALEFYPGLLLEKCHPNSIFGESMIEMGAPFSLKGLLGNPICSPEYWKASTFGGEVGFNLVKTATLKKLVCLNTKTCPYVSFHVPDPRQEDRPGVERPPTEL

## Cc1nc(C)c(C(=O)Nc2ccc(F)c(-c3nc4ncc(-c5ncccc5C)cn4n3)c2)o1 [compound 1, N-(4-Fluoro-3-(6-(3-methylpyridin-2-yl)-[1,2,4]triazolo[1,5-a]pyrimidin-2-yl)phenyl)-2,4-dimethyloxazole-5-carboxamide]
Hr GR ag; hr GR ag
  EC50/IC50: > 30 µM
Hr GR ag; read-out: % inh/act @ 10 µM
  inhibition at 10 µM: -5%
Hr GR ag; read-out: % inh/act @ 30 µM
  inhibition at 30 µM: -4%
Hr Nav1.5
  EC50/IC50: > 50 µM
Nav1.5
  inhibition at 10 µM: 8%
  inhibition at 30 µM: 3%
Ov COX-1; ov COX-1
  EC50/IC50: > 30 µM
Ov COX-1; read-out: % inh/act @ 10 µM
  inhibition at 10 µM: 16%
Ov COX-1; read-out: % inh/act @ 30 µM
  inhibition at 30 µM: 14%
